Data taken from patent publication US4378358A, “Benzothiazinopyrazoles having pharmacological activity” (Mediolanum Farmaceutici s.r.l., priority 1980, dated 1983).
Read-outs that look alike come from different tables or passages of the source.

Legend:
in vivo [1] = format: in vivo; conditions: rat, in vivo, po; read-out: LD 50 (Litchfield and Wilcoxon)
Rat [2] = test: in vivo; format: in vivo
in vivo [3] = conditions: rat, in vivo, po
Source text: (§1) Five days subacute toxicity in rats per os
(§2) Animals: 5 female rats for each group, average body weight: 150g.

rats [4] = test: in vivo; conditions: 5 days, rats, per os
Source text: as §1, §2

rats [5] = format: in vivo, rat; conditions: for Average number of lesions per animal: 100 mg/kg (maximum tested dose); for Average number of lesions per animal / Gastrolesive effect, relative potency to naproxen / Gastrolesive effect, relative potency to piroxicam: single oral administration, male rats
Method: The test was modified by increasing the fast period to 70 hours and giving the total dose of substance in one single oral administration.
Animals: 10 male rats for each group, average body weight: 150g.

pyresis = test: Antipyretic activity according to Burn et al.; format: in vivo, rat; conditions: for Reduction of the pyresis at hour 4: female rats
Source text: Animals: 6 female rats for each group, average body weight 200 g.

phenylquinone writhes = test: Analgesic activity according to Hendershot et al., phenylquinone writhes, modified; format: in vivo, mouse
Method: Analgesic activity according to HENDERSHOT et al., Jour. Pharm.
The test was modified by numbering the writhes only along the time interval from 5 to 15 minutes since the injection of phenylquinone. The injection was made 2 hours after the oral administration of the compound to be tested.
Animals: 8 female mice for each group, average body weight: 25g

carrageenin paw edema = test: Antiinflammatory activity according to Winter et al., carrageenin paw edema, modified; format: in vivo, rat
Method: Antiinflammatory activity according to WINTER et al., Proc. Soc. Exp. Biol. Med.; 111, 544; 1962.
The test was modified in that the injection of carrageenin and the administration of the compound by gastric gavage were carried out simultaneously and the paw edema was measured at the plethysmograph after 4 hours.
Animals: 6 female rats for each group, average body weight: 150g

in vivo [6] = conditions: mouse, po
Rat [7] = conditions: per os, literature value (footnotes a, b); cited from earlier work
[8] = 200 mg/kg/day, read-out: % of dead animals
[9] = 50 mg/g (so in the source) per os
[10] = 100 mg/g (so in the source) per os
[11] = Mus musculus, 50 mg/kg oral, 2 h before phenylquinone, 5-15 min, female mice
[12] = Mus musculus, 100 mg/kg oral, 2 h before phenylquinone, 5-15 min, female mice
[13] = Rattus norvegicus, po, 4 h, 50 mg/kg per os, female rats, read-out: % inhibition of the edema after 4 hours
[14] = Rattus norvegicus, po, 4 h, 100 mg/kg per os, female rats, read-out: % inhibition of the edema after 4 hours

## CN1c2c(C(=O)NCCCN3CCOCC3)nn(-c3ccccc3)c2-c2ccccc2S1(=O)=O [Compound I-3]
In vivo [1]
  LD50: 1080 mg/kg
Rat [2]; in vivo
  LD 50, relative ratio to piroxicam: 4.0
In vivo [3]; [8]
  mortality at 120 h: 0%
Rats [4]
  Subacute toxicity, relative ratio to naproxen: 4
  Subacute toxicity, relative ratio to piroxicam: 10
Rats [5]
  Average number of lesions per animal: 0
  Gastrolesive effect, relative potency to naproxen: > 20
  Gastrolesive effect, relative potency to piroxicam: 100
pyresis; [9]
  Antipyretic relative potency to naproxen: 0.7
  Antipyretic relative potency to piroxicam: 0.9
  Reduction of the pyresis at hour 4: 0.77 °C
pyresis; [10]
  Antipyretic relative potency to naproxen: 1.0
  Antipyretic relative potency to piroxicam: 1.2
  Reduction of the pyresis at hour 4: 1.08 °C
Phenylquinone writhes; 50 mg/kg oral
  Analgesic relative potency to naproxen: 1.0
  Analgesic relative potency to piroxicam: 0.7
Phenylquinone writhes; 100 mg/kg oral
  Analgesic relative potency to naproxen: 1.8
  Analgesic relative potency to piroxicam: 1.3
Phenylquinone writhes; [11]
  inhibition in vivo at 50 mg/kg: 33%
Phenylquinone writhes; [12]
  inhibition in vivo at 100 mg/kg: 60%
Carrageenin paw edema; 50 mg/kg per os
  Antiinflammatory relative potency to naproxen: 0.4
  Antiinflammatory relative potency to piroxicam: 0.2
Carrageenin paw edema; 100 mg/kg per os
  Antiinflammatory relative potency to naproxen: 0.7
  Antiinflammatory relative potency to piroxicam: 0.3
Carrageenin paw edema; [13]
  inhibition in vivo at 50 mg/kg: 9%
Carrageenin paw edema; [14]
  inhibition in vivo at 100 mg/kg: 15%
Mouse; per os
  LD 50, relative ratio to naproxen: 1.8
  LD 50, relative ratio to piroxicam: 6.1
In vivo [6]
  LD50: 2200 mg/kg

## CN1c2c(C(=O)NCCCNC3CCCCC3)nn(-c3cccc(F)c3)c2-c2ccccc2S1(=O)=O [Compound I-23]
In vivo [1]
  LD50: 1200 mg/kg
Rat [2]; per os
  LD 50, relative ratio to naproxen: 2.2
  LD 50, relative ratio to piroxicam: 4.4
In vivo [3]; [8]
  mortality at 120 h: 0%
Rats [4]
  Subacute toxicity, relative ratio to naproxen: 4
  Subacute toxicity, relative ratio to piroxicam: 10
Rats [5]
  Average number of lesions per animal: 0
  Gastrolesive effect, relative potency to naproxen: > 20
  Gastrolesive effect, relative potency to piroxicam: 100
pyresis; [9]
  Antipyretic relative potency to naproxen: 1.1
  Antipyretic relative potency to piroxicam: 1.3
  Reduction of the pyresis at hour 4: 1.20 °C
pyresis; [10]
  Antipyretic relative potency to naproxen: 1.3
  Antipyretic relative potency to piroxicam: 1.6
  Reduction of the pyresis at hour 4: 1.42 °C
Phenylquinone writhes; 50 mg/kg oral
  Analgesic relative potency to naproxen: 1.6
  Analgesic relative potency to piroxicam: 1.2
Phenylquinone writhes; 100 mg/kg oral
  Analgesic relative potency to naproxen: 2.4
  Analgesic relative potency to piroxicam: 1.7
Phenylquinone writhes; [11]
  inhibition in vivo at 50 mg/kg: 54%
Phenylquinone writhes; [12]
  inhibition in vivo at 100 mg/kg: 79%
Carrageenin paw edema; 50 mg/kg per os
  Antiinflammatory relative potency to naproxen: 1.3
  Antiinflammatory relative potency to piroxicam: 0.6
Carrageenin paw edema; 100 mg/kg per os
  Antiinflammatory relative potency to naproxen: 1.8
  Antiinflammatory relative potency to piroxicam: 0.8
Carrageenin paw edema; [13]
  inhibition in vivo at 50 mg/kg: 27%
Carrageenin paw edema; [14]
  inhibition in vivo at 100 mg/kg: 38%
Mouse; in vivo
  LD 50, relative ratio to piroxicam: 2.0
In vivo [6]
  LD50: 720 mg/kg

## CN1C(C(=O)Nc2ccccn2)=C(O)c2ccccc2S1(=O)=O [Piroxicam, piroxicam, reference compound]
Rat [2]; per os
  LD 50, relative ratio to piroxicam: 1
In vivo [3]; 20 mg/kg/day
  mortality at 120 h: 0%
In vivo [3]; 30 mg/kg/day
  mortality: 6%
  mortality at 120 h: 40%
Rats [4]
  Subacute toxicity, relative ratio to piroxicam: 1
Rats [5]
  Gastrolesive effect, relative potency to piroxicam: 1
Rats [5]; rat, in vivo
  Gastric ulcerogenicity (in words): considerable gastrolesive power
pyresis; 10 mg/g (so in the source) per os
  Reduction of the pyresis at hour 4: 0.89 °C
Phenylquinone writhes; Mus musculus, 10 mg/kg oral, 2 h before phenylquinone, 5-15 min, female mice
  inhibition in vivo at 10 mg/kg: 46%
Carrageenin paw edema; Rattus norvegicus, po, 4 h, 10 mg/kg per os, female rats, read-out: % inhibition of the edema after 4 hours
  inhibition in vivo at 10 mg/kg: 45%
Mouse; per os
  LD 50, relative ratio to piroxicam: 1
Rat [7]
  LD 50 (Litchfield and Wilcoxon): 270 mg/kg

## CN(C)CCCNC(=O)c1nn(-c2cccc(F)c2)c2c1N(C)S(=O)(=O)c1ccccc1-2 [Compound I-21]
In vivo [1]
  LD50: 2260 mg/kg
Rat [2]; per os
  LD 50, relative ratio to naproxen: 4.2
  LD 50, relative ratio to piroxicam: 8.4
In vivo [3]; 350 mg/kg/day, read-out: % of dead animals
  mortality at 120 h: 0%
Rats [4]
  Subacute toxicity, relative ratio to naproxen: 7
  Subacute toxicity, relative ratio to piroxicam: 17
Rats [5]
  Average number of lesions per animal: 0
  Gastrolesive effect, relative potency to naproxen: > 20
  Gastrolesive effect, relative potency to piroxicam: 100
pyresis; [9]
  Antipyretic relative potency to naproxen: 0.4
  Antipyretic relative potency to piroxicam: 0.5
  Reduction of the pyresis at hour 4: 0.47 °C
pyresis; [10]
  Antipyretic relative potency to naproxen: 0.7
  Antipyretic relative potency to piroxicam: 0.8
  Reduction of the pyresis at hour 4: 0.75 °C
Phenylquinone writhes; 50 mg/kg oral
  Analgesic relative potency to naproxen: 1.4
  Analgesic relative potency to piroxicam: 1.0
Phenylquinone writhes; 100 mg/kg oral
  Analgesic relative potency to naproxen: 2.0
  Analgesic relative potency to piroxicam: 1.4
Phenylquinone writhes; [11]
  inhibition in vivo at 50 mg/kg: 47%
Phenylquinone writhes; [12]
  inhibition in vivo at 100 mg/kg: 65%
Carrageenin paw edema; 50 mg/kg per os
  Antiinflammatory relative potency to naproxen: 0.6
  Antiinflammatory relative potency to piroxicam: 0.3
Carrageenin paw edema; 100 mg/kg per os
  Antiinflammatory relative potency to naproxen: 0.9
  Antiinflammatory relative potency to piroxicam: 0.4
Carrageenin paw edema; [13]
  inhibition in vivo at 50 mg/kg: 12%
Carrageenin paw edema; [14]
  inhibition in vivo at 100 mg/kg: 19%
Mouse; per os
  LD 50, relative ratio to naproxen: 1.2
  LD 50, relative ratio to piroxicam: 4.2
In vivo [6]
  LD50: 1520 mg/kg
